Measured values reported in patent publication US20240400572A1, “COMPOUNDS AND METHODS FOR TREATING CANCERS THAT ARE MGMT DEFICIENT REGARDLESS OF MMR STATUS” (Yale University, priority 2021, published 2024).

Columns and labels:
[1] = tested on: DLD1 MSH6-deficient cells; assay: Short-term cell viability assay with or without O^6BG; assay type: cell-based, human; conditions: DLD1 (MGMT+, MSH6−), with or without 10 μM O^6BG-induced MGMT depletion
Description: (§1) FIGS. Z2A-Z2H. […] (FIG. Z2A) IC50 values derived from short-term viability assays in LN229 MGMT+/−, MMR+/− cells treated with TMZ (1a) derivatives. ^aMGMT TI (therapeutic index)=IC50 (MGMT+/MMR+) divided by IC50 (MGMT−/MMR+). ^bMMR RI (resistance index)=IC50 (MGMT−/MMR−) divided by IC50 (MGMT−/MMR+). (FIG. Z2B) Short-term viability assay curves for TMZ (1a), CCNU (14), KL-85 (4b), and KL-50 (4a) in LN229 MGMT+/−, MMR+/− cells. (FIG. Z2C) Clonogenic survival curves for TMZ (1a) in LN229 MGMT+/−, MMR+/− cells, with representative images of wells containing 1000 plated cells treated with 30 μM TMZ (1a). (FIG. Z2D) Clonogenic survival curves for KL-50 (4a) in LN229 MGMT+/−, MMR+/− cells, with representative images of wells containing 1000 plated cells treated with 30 μM KL-50 (4a). (FIG. Z2E) Short-term viability assay curves for TMZ (1a) in DLD1 MSH6-deficient cells pre-treated with 0.01% DMSO control (CTR) or 10 μM O^6BG (+O^6BG) for 1 h prior to TMZ (1a) addition to deplete MGMT. (FIG. Z2F) Short-term viability assay curves for KL-50 (4a) in DLD1 MSH6-deficient cells pre-treated with 0.01% DMSO control (CTR) or 10 μM O^6BG (+O^6BG) for 1 h prior to KL-50 (4a) addition. (FIG. Z2G) Short-term viability assay curves for TMZ (1a) in HCT116 MLH1−/− cells or HCT116 cells complemented with chromosome 3 carrying wildtype MLH1 (+Chr3) pre-treated with 0.01% DMSO control or 10 μM O^6BG (+O^6BG) for 1 h prior to TMZ (1a) addition. (FIG. Z2H) Short-term viability assay curves for KL-50 (4a) in HCT116 MLH1−/− cells or HCT116 cells complemented with chromosome 3 carrying wildtype MLH1 (+Chr3) pre-treated with 0.01% DMSO control or 10 μM O^6BG (+O^6BG) for 1 h prior to KL-50 (4a) addition. For (FIG. Z2B), (FIG. Z2C), (FIG. Z2D), (FIG. Z2E), (FIG. Z2F), (FIG. Z2G), and (FIG. Z2H), points, mean; error bars, SD; n≥3 technical replicates.
(§2) Short-term Cell Viability Assay. Cells were seeded in 96-well plates at 1000 or 2000 cells/well and allowed to adhere at 23° C. for 60 min and then incubated overnight at 37° C. Cells were treated with indicated concentrations of compounds in triplicate for 4-6 days prior to fixation with 3.7% paraformaldehyde and nuclear staining with 1 μg/mL Hoechst 33342 dye. Cells were imaged on a Cytation 3 imaging reader (BioTek) and quantified using CellProfiler software.

[2] = tested on: HCT116 MLH1−/− cells and HCT116+Chr3 cells; assay: as above; assay type: cell-based, human; conditions: for cytotoxicity in HCT116 MLH1−/− cells (in words): MLH1-deficient, with or without 10 μM O^6BG; for cytotoxicity in HCT116+Chr3 cells (in words): complemented with chromosome 3 containing MLH1, with or without 10 μM O^6BG
Description: as §1, §2

For Cn1nnc2c(C(N)=O)ncn2c1=O [TMZ, temozolomide, reference compound], the “cytotoxicity in DLD1 cells (in words)” value [1] was “inactive”, the “cytotoxicity in HCT116 MLH1−/− cells (in words)” value [2] was “inactive” and the “cytotoxicity in HCT116+Chr3 cells (in words)” value [2] was “enhanced sensitivity to TMZ (1a), which was further potentiated by MGMT depletion”.

NC(=O)c1ncn2c(=O)n(CCF)nnc12 [KL-50, 3-(2-fluoroethyl)-4-oxo-3H,4H-imidazo[4,3-d][1,2,3,5]tetrazine-8-carboxamide] was tested, and the “cytotoxicity in DLD1 cells (in words)” value [1] was “toxic to these cells, but only after O^6BG-induced MGMT depletion”, the “cytotoxicity in HCT116 MLH1−/− cells (in words)” value [2] was “selective tumor cell killing specifically in the setting of O^6BG-induced MGMT suppression” and the “cytotoxicity in HCT116+Chr3 cells (in words)” value [2] was “selective tumor cell killing specifically in the setting of O^6BG-induced MGMT suppression”.
